Data on six compounds can be found in ChEMBL document CHEMBL1122334, “New azacannabinoids highly active in the central nervous system” (1983).

The structures appear in SMILES notation.

Holding throughout (assay type): functional
The species entered for test [1] is Mus musculus. In words: The compound was tested for analgesic activity using writhing (W) test in mouse. In general terms: An intraperitoneal irritant provokes the stretching counted in writhing tests.
Test [2] concerns Mus musculus. In words: The compound was tested for activity to decrease fighting in mouse at a dose of 20 mg/Kg.
Test [3] relates to Mus musculus. In words: The compound was tested for activity to decrease fighting in mouse at a dose of 5 mg/Kg.
Test [4] relates to Rattus norvegicus. The test is described as follows: The compound was tested for serotonin antagonism in rat at a dose of 5 mg/Kg.
Test [5] deals with Rattus norvegicus. In words: The compound was tested for serotonin antagonism in rat at a dose of 80 mg/Kg.
In test [6] the test system is Rattus norvegicus. The test is described as follows: The compound was tested for analgesic activity using (RTF) tail-flick test in rat at a dose of 20 mg/Kg. A general note: In hot-plate and tail-flick tests a longer latency is read as antinociception.
Test [7] relates to Rattus norvegicus. The test is described as follows: The compound was tested for decreasing motor activity in rat at a dose of 20 mg/Kg.
For test [8], the system named is Rattus norvegicus. In words: The compound was tested for decreasing motor activity in rat at a dose of 5 mg/Kg.
The test system of test [9] is Rattus norvegicus. In words: The compound was tested for decreasing motor activity in rat at a dose of 80 mg/Kg.
The subject of test [10] is Rattus norvegicus. The test is described as follows: The compound was tested for methamphetamine antagonism in rat at a dose of 20 mg/Kg.
For test [11], the system named is Rattus norvegicus. In words: The compound was tested for methamphetamine antagonism in rat at a dose of 5 mg/Kg.
Test [12] has as its system Rattus norvegicus. The test is described as follows: The compound was tested for serotonin antagonism in rat at a dose of 20 mg/Kg.
Test [13] concerns Rattus norvegicus. The test is described as follows: The compound was tested for hyperexcitability in rat at a dose of 20 mg/Kg.
Test [14] deals with Rattus norvegicus. In words: The compound was tested for hyperexcitability in rat at a dose of 5 mg/Kg.
Test [15] has as its system Rattus norvegicus. The test is described as follows: The compound was tested for hyperexcitability in rat. at a dose of 80 mg/Kg.
In test [16] the test system is Rattus norvegicus. In words: The compound was tested for methamphetamine antagonism in rat at a dose of 80 mg/Kg.
For test [17], the system named is Mus musculus. In words: The compound was tested for activity to decrease fighting in mouse at a dose of 10 mg/Kg.
The species named for test [18] is Rattus norvegicus. The test is described as follows: The compound was tested for analgesic activity using (RTF) tail-flick test in rat.
Test [19] has as its system Rattus norvegicus. The test is described as follows: The compound was tested for decreasing motor activity in rat at a dose of 10 mg/Kg.
The test system of test [20] is Rattus norvegicus. The test is described as follows: The compound was tested for hyperexcitability in rat at a dose of 10 mg/Kg.
For test [21], the system named is Mus musculus. The test is described as follows: The compound was tested for analgesic activity using writhing (W) test in mouse at a dose of 10 mg/Kg.
Test [22] relates to Mus musculus. The test is described as follows: The compound was tested for analgesic activity using writhing (W) test in mouse at a dose of 40 mg/Kg.
The subject of test [23] is Rattus norvegicus. The test is described as follows: The compound was tested for analgesic activity using (RTF) tail-flick test at a dose of 40 mg/Kg.
Test [24] relates to Rattus norvegicus. In words: The compound was tested for decreasing motor activity in rat. at a dose of 5 mg/Kg.
Test [25] relates to Rattus norvegicus. In words: The compound was tested for hyperexcitability in rat at a dose of 80 mg/Kg.
The species entered for test [26] is Mus musculus. The test is described as follows: The compound was tested for activity to decrease fighting in mouse.
Test [27] deals with Rattus norvegicus. The test is described as follows: The compound was tested for decreasing motor activity in rat at a dose of 2 mg/Kg.
The test system of test [28] is Rattus norvegicus. In words: The compound was tested for methamphetamine antagonism in rat at a dose of 1 mg/Kg.
The test system of test [29] is Rattus norvegicus. In words: The compound was tested for methamphetamine antagonism in rat at a dose of 2 mg/Kg.
Test [30] relates to Rattus norvegicus. In words: The compound was tested for serotonin antagonism in rat at a dose of 1 mg/Kg.
For test [31], the system named is Rattus norvegicus. In words: The compound was tested for serotonin antagonism in rat at a dose of 2 mg/Kg.
For test [32], the system named is Mus musculus. In words: The compound was tested for analgesic activity using writhing (W) test in mouse at a dose of 51 mg/Kg.
Test [33] concerns Rattus norvegicus. The test is described as follows: The compound was tested for hyper excitability in rat at a dose of 20 mg/Kg.
For test [34], the system named is Rattus norvegicus. In words: The compound was tested for hyper excitability in rat at a dose of 80 mg/Kg.
For test [35], the system named is Rattus norvegicus. In words: The compound was tested for hyperexcitability in rat. at a dose of 5 mg/Kg.
The subject of test [36] is Rattus norvegicus. The test is described as follows: The compound was tested for analgesic activity using (RTF) tail-flick test in rat at a dose of 40 mg/Kg.

Broadly, the ED50 is the dose at which the effect has come halfway, by size or by number of responders. A lower ED50 goes with greater potency. `CCCCCC(C)C(C)c1cc(O)c2c(c1)OC(C)(C)C1=C2CN(CC(=O)NC)CC1` (stereo unspecified) gave a 50% effective dose (ED50) in the test listed under Mus musculus [1] of 5.1 mg/kg. Besides, the Decrease in fighting is recorded as 34% with Mus musculus [2] and 11% with Mus musculus [3]. Further, the Decrease in activity in the test on Rattus norvegicus [4] is -54%; with Rattus norvegicus [5], 97%; in the test with Rattus norvegicus [7] it was 66%; with Rattus norvegicus [8], 33%; with Rattus norvegicus [9] it was 93%; with Rattus norvegicus [10] it was 72%. Also, the Decrease in activity in the test with Rattus norvegicus [11] is reported as 72%; with Rattus norvegicus [12], 21%; with Rattus norvegicus [16], 72%. In addition, the increase in response with Rattus norvegicus [6] came to 92%. The Possible response in the test on Rattus norvegicus [13] was determined as 100%; in the test on Rattus norvegicus [14] it was 92%; with Rattus norvegicus [15], 100%.

Consider `C#CCN1CCC2=C(C1)c1c(O)cc(C(C)C(C)CCCCC)cc1OC2(C)C` (stereo unspecified), for which the values for the ED50 in the test filed under Mus musculus [1] and in the test listed under Rattus norvegicus [18] were 4.3 mg/kg and 14 mg/kg, respectively. Further, the Decrease in fighting worked out at 62% in the test with Mus musculus [17] and 48% in the test with Mus musculus [3]. The Decrease in activity came to 81% in the test on Rattus norvegicus [4]; 33% with Rattus norvegicus [5]; 51% with Rattus norvegicus [19]; 80% in the test with Rattus norvegicus [10]; 59% with Rattus norvegicus [11]; 84% in the test on Rattus norvegicus [12]. Further, the Decrease in activity in the test on Rattus norvegicus [16] is 73%. Moreover, the Possible response came out at 71% in the test on Rattus norvegicus [20] and 29% with Rattus norvegicus [14].

For `CCCCCC(C)C(C)c1cc(O)c2c(c1)OC(C)(C)C1=C2CN(CC(N)=O)CC1` (stereo unspecified), the figures for the increase in response in the test with Mus musculus [21], with Mus musculus [22] and in the test with Rattus norvegicus [23] were 6%, 82% and 132%, respectively. Moreover, the figures for the Decrease in fighting in the test with Mus musculus [2] and with Mus musculus [3] were 21% and 10%, respectively. For the same compound, the Decrease in activity in the test with Rattus norvegicus [4] is listed as 71%; in the test on Rattus norvegicus [5], 78%; in the test with Rattus norvegicus [7], 78%; with Rattus norvegicus [9], 86%; in the test with Rattus norvegicus [24] it was 28%; with Rattus norvegicus [10], 58%. The values for the Decrease in activity with Rattus norvegicus [11], in the test with Rattus norvegicus [12] and in the test on Rattus norvegicus [16] were 42%, 83% and 71%, respectively. Moreover, the figures for the Possible response in the test with Rattus norvegicus [13], in the test with Rattus norvegicus [14] and in the test on Rattus norvegicus [25] were 79%, 65% and 98%, respectively.

As for `CC(CCCc1ccc(F)cc1)c1cc(O)c2c(c1)OC(C)(C)C1=C2CN(CC(=O)NC(N)=O)CC1` (stereo unspecified), the ED50 in the test listed under Mus musculus [26] stood at 2 mg/kg; in the test listed under Mus musculus [1], 0.7 mg/kg; in the test filed under Rattus norvegicus [18], 1.6 mg/kg. Moreover, the Decrease in activity in the test on Rattus norvegicus [27] was 88%; with Rattus norvegicus [24], 55%; in the test with Rattus norvegicus [28], 64%; in the test with Rattus norvegicus [29], 75%; in the test with Rattus norvegicus [30] it was 50%; in the test on Rattus norvegicus [31], 72%. The figures for the Possible response with Rattus norvegicus [13], in the test with Rattus norvegicus [14] and in the test with Rattus norvegicus [25] were 90%, 46% and 100%, respectively.

Turning to `CCCCCC(C)C(C)c1cc(O)c2c(c1)OC(C)(C)C1=C2CN(CC(=O)OCC)CC1` (stereo unspecified), the figures for the increase in response with Mus musculus [21] and in the test on Mus musculus [32] were 35% and 51%, respectively. Moreover, the Decrease in activity is 60% in the test on Rattus norvegicus [4]; 89% in the test on Rattus norvegicus [5]; 19% in the test with Rattus norvegicus [7]; 49% in the test with Rattus norvegicus [8]; 60% with Rattus norvegicus [9]; 54% in the test on Rattus norvegicus [10]. Moreover, the Decrease in activity with Rattus norvegicus [11] was 18%; in the test on Rattus norvegicus [12] it was 56%; in the test on Rattus norvegicus [16], 81%. Further, the Possible response amounted to 12% with Rattus norvegicus [33], 81% in the test on Rattus norvegicus [34] and 0% with Rattus norvegicus [35].

On to `CCCCCC(C)C(C)c1cc(O)c2c(c1)OC(C)(C)C1=C2CN(CC(=O)N(C)C)CC1` (stereo unspecified), for which the increase in response was determined as 19% with Mus musculus [21], 86% with Mus musculus [22] and 84% with Rattus norvegicus [36]. In addition, the Decrease in fighting is 13% in the test on Mus musculus [2] and 10% in the test on Mus musculus [3]. The Decrease in activity in the test with Rattus norvegicus [7] was 65%; in the test with Rattus norvegicus [9], 78%; in the test with Rattus norvegicus [24], 53%; in the test on Rattus norvegicus [10], -36%; in the test on Rattus norvegicus [11], -43%; with Rattus norvegicus [16], 26%. Further, the Possible response with Rattus norvegicus [13] is reported as 13%; in the test on Rattus norvegicus [14], 0%; in the test on Rattus norvegicus [25], 69%.
